Results reported in patent publication US11065232B2, “Dihydrotetrabenazine for the treatment of anxiety and psychoses” (ADEPTIO PHARMACEUTICALS LIMITED, priority 2017, dated 2021).

Columns and labels:
[1] = target: T1, alpha 1B (h) (antagonist radioligand) (Homo sapiens, UniProt P35368); test: Receptor protein binding studies, alpha 1B
T1 sequence (P35368 1-520): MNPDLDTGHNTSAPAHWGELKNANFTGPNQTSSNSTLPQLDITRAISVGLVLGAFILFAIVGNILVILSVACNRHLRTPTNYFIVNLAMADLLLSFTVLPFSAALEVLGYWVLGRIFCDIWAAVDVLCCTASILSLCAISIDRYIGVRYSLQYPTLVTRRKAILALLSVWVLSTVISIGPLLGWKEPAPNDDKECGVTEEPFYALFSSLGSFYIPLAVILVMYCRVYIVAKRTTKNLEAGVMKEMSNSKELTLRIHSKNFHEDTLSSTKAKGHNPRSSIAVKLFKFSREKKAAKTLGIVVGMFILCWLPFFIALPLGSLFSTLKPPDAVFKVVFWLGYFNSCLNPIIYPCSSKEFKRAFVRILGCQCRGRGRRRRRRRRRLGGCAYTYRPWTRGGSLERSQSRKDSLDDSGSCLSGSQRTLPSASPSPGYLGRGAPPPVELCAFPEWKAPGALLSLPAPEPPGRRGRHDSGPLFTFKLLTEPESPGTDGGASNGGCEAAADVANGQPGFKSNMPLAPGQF
Source text: (§1) The four 3,11b trans-dihydrotetrabenazine isomers (+)-α, (−)-α, (+)-β and (−)-β were subjected to specific binding assays to test their ability to bind to the receptors and transporter proteins described below. The results are set out in Table 1

[2] = target: T2, alpha 1D (h) (antagonist radioligand) (Homo sapiens, UniProt P25100); test: Receptor protein binding studies, alpha 1D
T2 sequence (P25100 1-572): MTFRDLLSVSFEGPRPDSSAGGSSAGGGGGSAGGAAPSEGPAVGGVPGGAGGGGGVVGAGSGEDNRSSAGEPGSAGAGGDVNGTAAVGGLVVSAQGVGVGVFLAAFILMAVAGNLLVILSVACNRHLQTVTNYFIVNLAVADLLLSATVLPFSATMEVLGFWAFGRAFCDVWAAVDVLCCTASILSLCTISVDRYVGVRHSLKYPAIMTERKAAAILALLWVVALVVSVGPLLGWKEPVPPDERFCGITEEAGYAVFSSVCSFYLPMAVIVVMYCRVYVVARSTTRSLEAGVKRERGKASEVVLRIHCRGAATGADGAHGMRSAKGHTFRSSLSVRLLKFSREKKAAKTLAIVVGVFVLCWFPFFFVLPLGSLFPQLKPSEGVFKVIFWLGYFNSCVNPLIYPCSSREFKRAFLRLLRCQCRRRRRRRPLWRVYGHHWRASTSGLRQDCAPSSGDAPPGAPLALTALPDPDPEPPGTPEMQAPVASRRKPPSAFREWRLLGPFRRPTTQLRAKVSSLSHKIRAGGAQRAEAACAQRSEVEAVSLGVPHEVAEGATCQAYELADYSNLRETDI
Source text: as §1

[3] = target: D1 (h) (antagonist radioligand) (Homo sapiens, UniProt P21728); test: Receptor protein binding studies, D1
Source text: as §1

Dopamine D2L = Dopamine D2L (Homo sapiens, UniProt P14416); test: Receptor protein binding studies, Dopamine D2L
Source text: as §1

[4] = target: Sigma 1 (h) (agonist radioligand) (Homo sapiens, UniProt Q99720); test: Receptor protein binding studies, Sigma 1
Source text: as §1

[5] = target: T3, 5-HT2C (h) (agonist radioligand) (Homo sapiens, UniProt P28335); test: Receptor protein binding studies, 5-HT2C
T3 sequence (P28335 33-458): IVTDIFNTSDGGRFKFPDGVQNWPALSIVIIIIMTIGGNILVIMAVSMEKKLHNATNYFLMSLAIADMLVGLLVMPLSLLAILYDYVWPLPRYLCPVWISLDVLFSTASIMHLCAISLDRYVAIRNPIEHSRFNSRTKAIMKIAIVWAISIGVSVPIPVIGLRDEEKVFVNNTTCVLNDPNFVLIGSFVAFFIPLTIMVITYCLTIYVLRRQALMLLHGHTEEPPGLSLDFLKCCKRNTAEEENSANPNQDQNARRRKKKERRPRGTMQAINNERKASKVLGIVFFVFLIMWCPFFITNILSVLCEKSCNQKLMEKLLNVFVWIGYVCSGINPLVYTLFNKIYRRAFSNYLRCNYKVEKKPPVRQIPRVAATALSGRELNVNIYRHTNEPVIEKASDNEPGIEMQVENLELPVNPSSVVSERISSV
Source text: as §1

[6] = target: hERG (membrane preparation) (antagonist radioligand) (Homo sapiens, UniProt Q12809); test: Receptor protein binding studies, hERG
Source text: as §1

[7] = target: T4, alpha 2A (h) (antagonist radioligand) (Homo sapiens, UniProt P08913); test: Receptor protein binding studies, alpha 2A
T4 sequence (P08913 1-465): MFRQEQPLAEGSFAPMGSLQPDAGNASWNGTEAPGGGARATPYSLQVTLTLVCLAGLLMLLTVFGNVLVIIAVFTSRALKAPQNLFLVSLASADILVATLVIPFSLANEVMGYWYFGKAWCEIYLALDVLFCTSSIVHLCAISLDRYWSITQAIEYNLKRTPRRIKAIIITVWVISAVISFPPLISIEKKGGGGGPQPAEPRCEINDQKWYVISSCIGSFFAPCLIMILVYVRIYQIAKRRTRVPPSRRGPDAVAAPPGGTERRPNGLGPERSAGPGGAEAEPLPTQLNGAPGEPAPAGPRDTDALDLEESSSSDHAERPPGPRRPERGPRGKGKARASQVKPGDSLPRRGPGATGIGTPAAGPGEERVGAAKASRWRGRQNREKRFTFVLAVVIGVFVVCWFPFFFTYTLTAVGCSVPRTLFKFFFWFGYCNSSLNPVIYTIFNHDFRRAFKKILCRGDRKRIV
Source text: as §1

[8] = target: D2S (h) (antagonist radioligand) (Homo sapiens, UniProt P14416); test: Receptor protein binding studies, D2S
Source text: as §1

[9] = target: D5 (h) (antagonist radioligand) (Homo sapiens, UniProt P21918); test: Receptor protein binding studies, D5
Source text: as §1

Chain of Sigma 1 (h) (agonist radioligand) (Q99720 whole entry): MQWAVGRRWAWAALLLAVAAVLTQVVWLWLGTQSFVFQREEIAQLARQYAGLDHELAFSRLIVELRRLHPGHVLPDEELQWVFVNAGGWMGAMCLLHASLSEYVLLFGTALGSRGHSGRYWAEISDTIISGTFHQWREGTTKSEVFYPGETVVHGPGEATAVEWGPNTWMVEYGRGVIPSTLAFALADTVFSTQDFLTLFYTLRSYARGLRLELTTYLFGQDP
Chain of D2S (h) (antagonist radioligand) (P14416 1-414 isoform P14416-2): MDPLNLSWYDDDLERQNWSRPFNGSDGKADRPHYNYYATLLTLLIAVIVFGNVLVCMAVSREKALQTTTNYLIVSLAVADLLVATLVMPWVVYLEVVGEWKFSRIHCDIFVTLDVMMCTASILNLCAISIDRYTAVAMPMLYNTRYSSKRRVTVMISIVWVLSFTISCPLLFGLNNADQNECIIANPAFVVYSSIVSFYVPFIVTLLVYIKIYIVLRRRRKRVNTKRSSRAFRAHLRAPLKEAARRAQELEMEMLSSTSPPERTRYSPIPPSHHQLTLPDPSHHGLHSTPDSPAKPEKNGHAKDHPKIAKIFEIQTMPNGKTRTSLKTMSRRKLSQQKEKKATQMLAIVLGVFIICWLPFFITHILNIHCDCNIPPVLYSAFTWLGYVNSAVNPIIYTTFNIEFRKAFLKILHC
Chain of D5 (h) (antagonist radioligand) (P21918 whole entry): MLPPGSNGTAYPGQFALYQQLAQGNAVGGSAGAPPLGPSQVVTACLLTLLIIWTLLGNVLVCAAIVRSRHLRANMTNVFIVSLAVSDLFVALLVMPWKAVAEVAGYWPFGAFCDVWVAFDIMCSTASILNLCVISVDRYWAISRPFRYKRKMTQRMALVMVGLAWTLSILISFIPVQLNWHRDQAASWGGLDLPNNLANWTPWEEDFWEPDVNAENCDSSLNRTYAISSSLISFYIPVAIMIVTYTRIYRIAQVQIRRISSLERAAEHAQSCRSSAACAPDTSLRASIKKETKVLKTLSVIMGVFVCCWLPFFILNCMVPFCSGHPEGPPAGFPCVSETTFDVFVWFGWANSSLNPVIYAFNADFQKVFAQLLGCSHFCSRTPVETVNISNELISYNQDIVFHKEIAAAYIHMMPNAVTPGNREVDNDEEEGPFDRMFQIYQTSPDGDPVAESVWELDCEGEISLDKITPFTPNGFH
Chain of hERG (membrane preparation) (antagonist radioligand) (Q12809 whole entry): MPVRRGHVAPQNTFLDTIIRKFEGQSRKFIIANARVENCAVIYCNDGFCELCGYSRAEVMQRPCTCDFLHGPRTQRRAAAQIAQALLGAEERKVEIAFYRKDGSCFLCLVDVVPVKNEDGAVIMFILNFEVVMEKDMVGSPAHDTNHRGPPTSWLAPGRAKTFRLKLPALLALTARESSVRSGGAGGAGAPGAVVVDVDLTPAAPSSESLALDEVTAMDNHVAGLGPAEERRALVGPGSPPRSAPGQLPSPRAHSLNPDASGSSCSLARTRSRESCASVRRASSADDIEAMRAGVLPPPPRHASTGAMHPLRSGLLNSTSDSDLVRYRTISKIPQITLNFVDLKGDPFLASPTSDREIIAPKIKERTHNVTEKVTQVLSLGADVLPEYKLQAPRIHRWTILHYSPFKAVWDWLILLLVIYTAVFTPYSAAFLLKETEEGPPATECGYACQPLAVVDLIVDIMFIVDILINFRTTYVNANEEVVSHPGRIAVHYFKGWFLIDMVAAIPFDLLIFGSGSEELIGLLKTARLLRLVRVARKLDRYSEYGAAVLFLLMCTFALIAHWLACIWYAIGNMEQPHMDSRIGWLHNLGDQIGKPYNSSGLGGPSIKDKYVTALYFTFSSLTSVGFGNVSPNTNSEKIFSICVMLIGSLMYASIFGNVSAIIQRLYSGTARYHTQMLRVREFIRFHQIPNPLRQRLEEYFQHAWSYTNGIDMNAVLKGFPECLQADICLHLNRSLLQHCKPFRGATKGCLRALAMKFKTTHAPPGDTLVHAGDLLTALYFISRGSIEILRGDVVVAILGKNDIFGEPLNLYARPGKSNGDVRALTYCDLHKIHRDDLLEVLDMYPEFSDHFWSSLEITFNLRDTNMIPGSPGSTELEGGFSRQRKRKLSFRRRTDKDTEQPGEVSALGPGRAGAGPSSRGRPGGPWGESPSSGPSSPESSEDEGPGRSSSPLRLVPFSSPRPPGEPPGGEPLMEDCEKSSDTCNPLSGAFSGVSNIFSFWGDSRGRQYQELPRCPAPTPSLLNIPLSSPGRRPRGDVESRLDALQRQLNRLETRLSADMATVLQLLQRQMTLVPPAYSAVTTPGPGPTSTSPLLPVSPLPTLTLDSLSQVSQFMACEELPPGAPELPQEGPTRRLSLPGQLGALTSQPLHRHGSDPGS
Chain of Dopamine D2L (P14416 whole entry): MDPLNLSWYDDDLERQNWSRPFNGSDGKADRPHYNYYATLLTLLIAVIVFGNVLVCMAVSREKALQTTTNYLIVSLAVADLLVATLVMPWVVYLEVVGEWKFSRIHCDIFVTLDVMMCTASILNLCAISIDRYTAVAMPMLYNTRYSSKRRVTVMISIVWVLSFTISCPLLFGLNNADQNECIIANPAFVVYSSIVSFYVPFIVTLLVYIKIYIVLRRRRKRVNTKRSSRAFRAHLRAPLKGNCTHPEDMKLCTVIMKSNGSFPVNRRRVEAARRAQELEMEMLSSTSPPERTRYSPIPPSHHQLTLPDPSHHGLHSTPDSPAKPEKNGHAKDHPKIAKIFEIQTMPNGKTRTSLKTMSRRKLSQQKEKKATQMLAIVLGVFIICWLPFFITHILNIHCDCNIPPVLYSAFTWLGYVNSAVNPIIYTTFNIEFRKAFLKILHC
Chain of D1 (h) (antagonist radioligand) (P21728 whole entry): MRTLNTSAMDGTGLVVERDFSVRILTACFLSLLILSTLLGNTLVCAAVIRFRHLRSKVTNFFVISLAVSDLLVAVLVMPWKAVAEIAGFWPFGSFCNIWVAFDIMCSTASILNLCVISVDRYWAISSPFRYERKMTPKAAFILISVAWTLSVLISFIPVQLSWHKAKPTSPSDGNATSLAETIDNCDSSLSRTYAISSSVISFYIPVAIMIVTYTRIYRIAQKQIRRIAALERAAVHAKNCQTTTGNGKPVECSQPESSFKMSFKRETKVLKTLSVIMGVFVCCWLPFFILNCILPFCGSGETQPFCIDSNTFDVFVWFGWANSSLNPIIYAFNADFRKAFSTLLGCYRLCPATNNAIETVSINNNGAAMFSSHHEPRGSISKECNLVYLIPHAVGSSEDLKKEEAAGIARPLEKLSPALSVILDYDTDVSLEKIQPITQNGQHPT

| Substance | % Inhibition of specific binding ([1]; CONC 1.0E−05 (unit not given)) [%] | % Inhibition of specific binding ([1]; CONC 1.0E−06 (unit not given)) [%] | % Inhibition of specific binding ([2]; CONC 1.0E−05 (unit not given)) [%] | % Inhibition of specific binding ([2]; CONC 1.0E−06 (unit not given)) [%] | % Inhibition of specific binding ([3]; CONC 1.0E−05 (unit not given)) [%] | % Inhibition of specific binding ([3]; CONC 1.0E−06 (unit not given)) [%] | % Inhibition of specific binding (Dopamine D2L; CONC 1.0E−05 (unit not given)) [%] | % Inhibition of specific binding (Dopamine D2L; CONC 1.0E−06 (unit not given)) [%] | % Inhibition of specific binding ([4]; CONC 1.0E−05 (unit not given)) [%] | % Inhibition of specific binding ([4]; CONC 1.0E−06 (unit not given)) [%] | % Inhibition of specific binding ([5]; CONC 1.0E−05 (unit not given)) [%] | % Inhibition of specific binding ([5]; CONC 1.0E−06 (unit not given)) [%] | % Inhibition of specific binding ([6]; CONC 1.0E−05 (unit not given)) [%] | % Inhibition of specific binding ([6]; CONC 1.0E−06 (unit not given)) [%] | % Inhibition of specific binding ([7]; CONC 1.0E−05 (unit not given)) [%] | % Inhibition of specific binding ([7]; CONC 1.0E−06 (unit not given)) [%] | % Inhibition of specific binding ([8]; CONC 1.0E−05 (unit not given)) [%] | % Inhibition of specific binding ([8]; CONC 1.0E−06 (unit not given)) [%] | % Inhibition of specific binding ([9]; CONC 1.0E−05 (unit not given)) [%] | % Inhibition of specific binding ([9]; CONC 1.0E−06 (unit not given)) [%] |
| --- | --- | --- | --- | --- | --- | --- | --- | --- | --- | --- | --- | --- | --- | --- | --- | --- | --- | --- | --- | --- |
| (+)-β-dihydrotetrabenazine [(+)-Beta] | 1 | 3 | 20 | 18 | 8 | 0 | 18 | 1 | 99 | 92 | −5 | 2 | 8 | 3 | 11 | −1 | 7 | −8 | −5 | −8 |
| (−)-α-dihydrotetrabenazine [(−)-Alpha] | 14 | 9 | 25 | 13 | 45 | 5 | 68 | 27 | 78 | 40 | 16 | 0 | 19 | 5 | 65 | 30 | 73 | 22 | 23 | −3 |
| (+)-α-dihydrotetrabenazine [(+)-Alpha] | 23 | −4 | −10 | 15 | −2 | 0 | 14 | 10 | 96 | 64 | 3 | −8 | 33 | 2 | 7 | 5 | 7 | −1 | −8 | −7 |
